Assay results reported in patent EP4813991A1 (iLeadBMS Co., Ltd., priority 2023, dated 2025).

Columns and labels:
Assay type in all cases: cell-based
NCI-H23 = assay: Lung cancer cell proliferation inhibitory activity, NCI-H23; settings: Homo sapiens, 72 hours, Cell Counting Kit-8, relative IC50
Experimental: (§1) Experiments were performed using three types of lung cancer cell lines to measure the cell proliferation inhibitory ability of the compounds of the present invention. NCI-H23 and NCI-H358 cells were dispensed into a 96-well plate at 100 µL of cell suspension per well using RPM11640 medium containing 10 % FBS and 1 % PS, followed by incubation in a cell incubator at 37 °C and 5 % CO2. A427 cells were dispensed into a 96-well plate at 100 µL of cell suspension per well using DMEM medium containing 10 % FBS and 1 % PS, followed by incubation in a cell incubator at 37 °C and 5 % CO2. The next day, each Example compound (such as Example 8) dissolved and diluted in DMSO across 10 concentration ranges and a DMSO control group were treated on the cells for 72 hours. After completion of the compound treatment, 10 µL of Cell Counting Kit-8 (Dojindo) reagent was added to each well of the 96-well plate, followed by incubation for 2 hours. After inserting the 96-well plate into an Envision plate reader […], luminescence signals were measured. Relative IC50 values were calculated by fitting a dose-response curve using Graphpad PRISM software.
(§2) The lung cancer cell proliferation inhibitory activities of the Example compounds measured by the method described above were evaluated according to the following criteria, and the results are presented in Table 17.

SW620 = assay: Colorectal cancer cell proliferation inhibitory activity, SW620; settings: Homo sapiens, SW-620; 72 hours, Cell Counting Kit-8, relative IC50
Experimental: (§3) Experiments were performed using seven types of colorectal cancer cell lines to measure the cell proliferation inhibitory ability of each Example compound. DLD-1, LoVo, SW620, SW480, HCT116, HCT15, and HT29 cells were dispensed into a 96-well plate at 100 µL of cell suspension per well using RPMI1640 medium containing 10 % FBS and 1 % PS, followed by incubation in a cell incubator at 37 °C and 5 % CO2. The next day, each Example compound dissolved and diluted in DMSO across 10 concentration ranges and a DMSO control group were treated on the cells for 72 hours. After completion of the compound treatment, 10 µL of Cell Counting Kit-8 (Dojindo) reagent was added to each well of the 96-well plate, followed by incubation for 2 hours. […] were measured after inserting the 96-well plate into an Envision plate reader […]. Relative IC50 values were calculated by fitting a dose-response curve using Graphpad PRISM software.
(§4) The colorectal cancer cell proliferation inhibitory activities of the Example compounds measured by the method described above were evaluated according to the following criteria, and the results are presented in Table 19.

NCI-H358 cells = assay: Lung cancer cell proliferation inhibitory activity, NCI-H358; settings: Homo sapiens, 72 hours, Cell Counting Kit-8, relative IC50
Experimental: as §1, §2

[1] = system: Gemcitabine resistant-MIA-PaCa2 cells; assay: Pancreatic cancer cell proliferation inhibitory activity, Gemcitabine resistant-MIA-PaCa2; settings: 72 hours, Cell Counting Kit-8, relative IC50
Experimental: (§5) Experiments were performed using three types of pancreatic cancer cell lines to measure the cell proliferation inhibitory ability of the compounds of the present invention. AsPC-1, MIA-PaCa2-Control, and Gemcitabine resistant-MIA-PaCa2 cells were dispensed into a 96-well plate at 100 uL of cell suspension per well using DMEM medium containing 10 % FBS and 1 % PS, followed by incubation in a cell incubator at 37 °C and 5 % CO2. The next day, the compound of Example 8 dissolved and diluted in DMSO across 10 concentration ranges and a DMSO control group were treated on the cells for 72 hours. After completion of the compound treatment, 10 µL of Cell Counting Kit-8 (Dojindo) reagent was added to each well of the 96-well plate, followed by incubation for 2 hours. […] were measured after inserting the 96-well plate into an Envision plate reader […]. Relative IC50 values were calculated by fitting a dose-response curve using Graphpad PRISM software.
(§6) The pancreatic cancer cell proliferation inhibitory activities of the Example compounds measured by the method described above were evaluated according to the following criteria, and the results are presented in Table 18.

DLD-1 = assay: Colorectal cancer cell proliferation inhibitory activity, DLD-1; settings: Homo sapiens, 72 hours, Cell Counting Kit-8, relative IC50
Experimental: as §3, §4

NCI-N87 = assay: Gastric cancer cell proliferation inhibitory activity (Cell Counting Kit-8), NCI-N87; settings: Homo sapiens, 72 hours, Cell Counting Kit-8, relative IC50
Experimental: as §3, with “six” for “seven”, “gastric” for “colorectal”, “NCI-N87, SNU601, KATO-III, MKN1,” for “DLD-1, LoVo, SW620, SW480, HCT116, HCT15,”, “AGS” for “HT29”, “RPMI1640 medium containing 10 % FBS and 1 % PS, followed by incubation in a cell incubator at 37 °C and 5 % CO2. HS746T cells were dispensed into a 96-well plate at 100 µL of cell suspension per well using DMEM” for “RPMI1640”
(§7) The gastric cancer cell proliferation inhibitory activities of the Example compounds measured by the method described above were evaluated according to the following criteria, and the results are presented in Table 20.

SNU601 = assay: Gastric cancer cell proliferation inhibitory activity (Cell Counting Kit-8), SNU601; settings: SNU-601; 72 hours, Cell Counting Kit-8, relative IC50
Experimental: as §3, with “six” for “seven”, “gastric” for “colorectal”, “NCI-N87, SNU601, KATO-III, MKN1,” for “DLD-1, LoVo, SW620, SW480, HCT116, HCT15,”, “AGS” for “HT29”, “RPMI1640 medium containing 10 % FBS and 1 % PS, followed by incubation in a cell incubator at 37 °C and 5 % CO2. HS746T cells were dispensed into a 96-well plate at 100 µL of cell suspension per well using DMEM” for “RPMI1640”
as §7

AsPC-1 = assay: Pancreatic cancer cell proliferation inhibitory activity, AsPC-1; settings: Homo sapiens, ASPC1; 72 hours, Cell Counting Kit-8, relative IC50
Experimental: as §5, §6

HCT116 = assay: Colorectal cancer cell proliferation inhibitory activity, HCT116; settings: Homo sapiens, HCT-116; 72 hours, Cell Counting Kit-8, relative IC50
Experimental: as §3, §4

HT29 cells = assay: Colorectal cancer cell proliferation inhibitory activity, HT29; settings: Homo sapiens, HT-29; 72 hours, Cell Counting Kit-8, relative IC50
Experimental: as §3, §4

Measured: IC50

CN1CCN(c2cc(NCc3nc4ccc(F)c(F)c4[nH]3)c3ncc(C(F)(F)F)n3n2)CC1 [Example 8, N-((6,7-difluoro-1H-benzo[d]imidazol-2-yl)methyl)-6-(4-methylpiperazin-1-yl)-3-(trifluoromethyl)imidazo[1,2-b]pyridazin-8-amine]
≤ 200 nM: all assays above
